Assay results taken from US20130267422A1, “COMPOSITION FOR CONTROLLING PLANT DISEASES COMPRISING 3-PENTANOL AS EFFECTIVE COMPONENT” (Korea Research Institute Of Bioscience And Biotechnology, priority 2010, published 2013).

Columns and labels:
Assay type in all cases: in vivo
cucumber mosaic virus = test: ISR against naturally occurring cucumber mosaic virus disease under field conditions; conditions: pepper, three months after final transplantation, versus control group
Description: (§1) FIGS. 5A through 5C illustrate the effect of 3-pentanol on ISR against naturally occurring plant diseases under field conditions. FIG. 5A illustrates the effect of 3-pentanol on cucumber mosaic virus (CMV) disease three months after the treatment, FIG. 5B illustrates the symptoms of the viral disease (the photographic image was taken three months after the naturally occurring plant disease), and FIG. 5C illustrates the effect of 3-pentanol on bacterial leaf spot disease three months after treatment. The positive control group plant was treated with 0.5 mM BTH. The disease occurrence rate (i.e., 0 to 5) as an indicator of ISR was measured three months after transplantation (i.e., 0: no symptoms; 5: severe symptoms of necrosis).
(§2) 3-Pentanol, having shown ISR properties, was used for subsequent direct applications. Pepper seeds were purchased from Heungnong Jongmyo (breed; Bugang). The surface of the seeds were sterilized for 5 minutes using 1% sodium hypochlorite and rinsed with sterilized water for 5 min. The surface sterilized seeds were allowed to germinate on MS medium containing an appropriate amount of moisture. […] The disease occurrence rate was determined based on comparison and observation at 10 day intervals until Day 40. The severity of symptoms was scored as in Yang et al. 2009, Plant Pathol. […]

[1] = system: bacterial leaf spot disease; test: ISR against naturally occurring bacterial leaf spot disease under field conditions; conditions: pepper, three months after final transplantation
Description: as §1, §2

aphids = test: Aphid infestation of cucumber, naturally occurring aphids; conditions: 1 mM soil drench, 34 dps
Description: FIGS. 8A and 8B illustrate that 3-pentanol confers induced resistance against aphids in cucumber: (a), Nymph number; (b), Adult number. Bars represent the mean±SE (sample size, n=12 replications per treatment).
Cucumber plants (Cucumis sativus L. cv. backdadagi) were cultivated in an open field under natural conditions. For greenhouse experiments, seeds were directly planted in pots containing soilless medium (Punong Co. Ltd., Gyeongju, Korea) in a 24 hole plug tray under greenhouse condition. The germinated seedlings were transplanted into large pots (diameter=30 cm; height=30 cm). Chemical treatments to elicit induced resistance in cucumber were carried out. Briefly, the 14 day old cucumber seedlings were treated by direct drench application of 50 mL solution of 1 mM 3-pentanol. 3-pentanol bought from Sigma-Aldrich Co. was dissolved in distilled water before application. Treatments with 1 mM benzothiadiazole (BTH) and water were used as positive and negative controls, respectively.
For pathogen challenge, a culture of the compatible bacterial pathogen Pseudomonas syringae pv. lachrymans (OD600=1 in 10 mM MgCl2) was spray-challenged on cucumber leaves until run-off at 7 days after the drench application of chemicals to roots at 21 days after seeding. The severity of symptoms was scored from 0 to 5 as follows: 0, no symptoms; 1, less than 20% diseased area; 2, 21%-40% diseased area; 3, 41%-60% diseased area; 4, 61%-80% diseased area; and 5, more than 81% diseased area of the entire leaf Bacterial pathogens were cultured overnight at 28° C. in King's B medium supplemented with the appropriate antibiotics (100 μg/mL). As a positive control, roots were treated with 1 mM BTH. […] To investigate whether the 3-pentanol elicited plant immunity to aphid feeding, numbers of naturally occurring aphids (in 2011, Daejeon, Korea) were counted. Application of 1 mM BTH was used as a positive control. The total numbers of nymph and adult aphids were counted at 34 days after seeding. The experiments were repeated with similar results.

[2] = system: Xanthomonas axonopodis pv. vesicatoria; test: ISR screening under greenhouse conditions, bacterial spot disease in pepper; conditions: irrigation, 1 mM, second screening
Experimental: FIGS. 1A and 1B illustrate the effect of the eighteen different volatile organic compounds from Bacillus amyloliquefaciens IN937a strain on plant ISR against Xanthomonas axonopodis pv. vesicatoria under greenhouse conditions. […] The positive control plant was treated with 0.5 mM benzothiadiazole (BTH). The disease occurrence rate (i.e., 0 to 5) as an indicator of ISR was measured on Day 7 following inoculation of pathogen (i.e., 0: no symptoms; 5: severe symptoms of necrosis).
In order to determine the ISR properties of the previously selected, eighteen different volatile organic compounds from the Bacillus amyloliquefaciens IN937a strain, young pepper was grown for 3 to 4 weeks after seeding and irrigated, with the compounds present, in concentrations of 10 μM or 100 nM in 50 ml volumes. One week following irrigation treatment, the plant was exposed to Xanthomonas axonopodis pv. vesicatoria at a concentration of 10^7 CFU/ml. Symptoms of disease were observed five to seven days later, and the level of disease was measured based on a scale from 0 to 5, as described above. In a second screening, four volatile substances, selected from the first screening, were incorporated into the irrigation treatment at concentrations of 1 mM, 10 μM, 0.1 μM, and 1 nM. After exposure to pathogen, symptoms of disease were observed.

[3] = system: Xanthomonas axonopodis pv. vesicatoria; test: ISR under field conditions, bacterial spot disease in pepper; conditions: for disease level (ISR against bacterial spot disease): 1 mM 3-pentanol; for resistance to the disease (bacterial spot): additional 3-pentanol treatment
Experimental: FIGS. 2A and 2B illustrate the effect of 3-pentanol on plant ISR against Xanthomonas axonopodis pv. vesicatoria under field conditions at different time points. The ISR effect of 3-pentanol was measured on Day 10, Day 20, Day 30, and Day 40 after seedling transplantation. The positive control plant was treated with 0.5 mM BTH. The disease occurrence rate (i.e., 0 to 5) as an indicator of ISR was measured on Day 10 following inoculation of pathogen.
3-Pentanol, having shown ISR properties, was used for subsequent direct applications. Pepper seeds were purchased from Heungnong Jongmyo (breed; Bugang). The surface of the seeds were sterilized for 5 minutes using 1% sodium hypochlorite and rinsed with sterilized water for 5 min. The surface sterilized seeds were allowed to germinate on MS medium containing an appropriate amount of moisture. Germinated seeds, without m having any contamination, were planted in a 50-hole pot (28×54×6 cm) filled with soil for horticultural use (Punong Co., Ltd, Korea) and cultivated for six weeks in a greenhouse at 20 to 30° C. Six weeks after seeding and upon growth of seven to eight main leaves, 1 mM 3-pentanol was diluted to a volume of about 3 liters with sterilized water and poured into the 50-hole pot dish. In order to have effective soaking of the immersion solution in the soil and roots of the plant, immersion was carried out over about 24 hours. After 24-hour immersion, the young pepper plants were transplanted into a field (i.e., Chungyong-Li, Gaduk-Myon, Chungwon-Gun, Chungchongbuk-Do, South Korea 36°32′27.26″ North and 127°33′07.81″ East). The burrow to burrow distance was 1.2 m and the field was about 12.5 m to ensure the treatment areas were evenly mixed with each other. Twenty days after the final transplantation into the field, a secondary application of 1 mM 3-pentanol diluted to a volume of about 3 liters with sterilized water, was applied as 100 mL irrigation treatments for each. The test method used was as follows: after final transplantation, using a syringe, Xanthomonas axonopodis pv. vesicatoria at the concentration of 10^7 CFU/ml was exposed to the backside of the pepper leaf at intervals of 10 days until Day 40. Responses were then examined seven to ten days after exposure. The bacterial inoculant has been cultured for 48 hours at 30° C. after adding antibiotics of Rifampicin (100 μg/ml) to a solid medium. The control group received zero treatment and the treatment group received four applications. The disease occurrence rate was determined based on comparison and observation at 10 day intervals until Day 40. The severity of symptoms was scored as in Yang et al. 2009, Plant Pathol. […]

PR1 and PR4 genes = test: Expression analysis of resistance genes by qRT-PCR; conditions: pepper leaf, six hours after inoculation of pathogen
Experimental: FIGS. 3A through 3D illustrate expression of the defense-related genes PR1 and PR4 induced by 3-pentanol following inoculation of pathogen to pepper. Expression of the defense signal transduction related genes PR1 and PR4 at 10 dpt (FIG. 3A), 20 dpt (FIG. 3B), 30 dpt (FIG. 3C), and 40 dpt (FIG. 3D) was determined by quantitative RT-PCR. Relative RNA levels were calibrated and normalized to the level of CaActin mRNA. The samples were collected 6 hours post inoculation of pathogen. The positive control group plant was treated with BTH.
Expression of PR1 and PR4 genes related to the disease resistance of pepper were examined based on quantitative real time-polymerase chain reaction (qRT-PCR). The sequences of the primers used are as follows.
Following bacterial exposure to the backside of a pepper leaf, the pepper leaf was cut using scissors at 0 hours and at 6 hours and stored in liquid nitrogen. RNA isolation began with the pepper leaf being ground in liquid nitrogen using a mortar and pestle, The RNA was then extracted from the pepper leaf by using TRIzol Reagent (Invitrogen Life Technologies). […]

[4] = system: Pseudomonas syringae pv. lachrymans; test: Angular leaf spot disease severity in cucumber; conditions: 1 mM drench, 28 days post seeding, 7 days after spray-challenge
Experimental: FIG. 7 illustrates induction of systemic resistance by 1 mM 3-pentanol against Pseudomonas syringae pv. lachrymans. The severity of symptoms was scored from 0 to 5 as follows: 0, no symptoms; 1, yellowish color; 2, chlorosis only; 3, partial necrosis and chlorosis; 4, necrosis of the inoculated area and expanded chlorosis; and 5, complete necrosis of the inoculated area. Disease severity of cucumber treated with 3-pentanol was assessed 7 days after infection with P. syringae pv. lachrymans. Water and 1 mM BTH were used as negative and positive controls, respectively. […] Error bars indicate the standard error (n=16). […]
For pathogen challenge, a culture of the compatible bacterial pathogen Pseudomonas syringae pv. lachrymans (OD600=1 in 10 mM MgCl2) was spray-challenged on cucumber leaves until run-off at 7 days after the drench application of chemicals to roots at 21 days after seeding. The severity of symptoms was scored from 0 to 5 as follows: 0, no symptoms; 1, less than 20% diseased area; 2, 21%-40% diseased area; 3, 41%-60% diseased area; 4, 61%-80% diseased area; and 5, more than 81% diseased area of the entire leaf Bacterial pathogens were cultured overnight at 28° C. in King's B medium supplemented with the appropriate antibiotics (100 μg/mL). […] The total numbers of nymph and adult aphids were counted at 34 days after seeding. […]

## c1ccc2snnc2c1 [BTH, benzothiadiazole, reference compound]
Cucumber mosaic virus
  resistance to cucumber mosaic virus: almost the same
[1]
  resistance to bacterial leaf spot disease: not different among three treatment groups
aphids
  number of adult aphids: 0.4 per leaf
  number of aphid nymphs: 20 per leaf

## CCC(O)CC [3-pentanol]
[2]
  resistance to bacterial spot disease in pepper, outcome of screening: finally selected
[3]; ten days after final transplantation
  disease level (ISR against bacterial spot disease): no difference compared to the control group
[3]; twenty days after final transplantation
  disease level (ISR against bacterial spot disease): less than the control group
[3]; forty days after final transplantation
  resistance to the disease (bacterial spot): higher resistance to the disease compared to the control group
[3]; thirty days after final transplantation
  resistance to the disease (bacterial spot): higher resistance to the disease compared to the control group
PR1 and PR4 genes; Day 10 after final transplantation
  expression level of PR gene: lower expression level of PR gene compared to the control group
PR1 and PR4 genes; from Day 20 after transplantation
  expression of PR gene: the same or higher than that of the control group
Cucumber mosaic virus
  resistance to cucumber mosaic virus: significantly increased
[1]
  resistance to bacterial leaf spot disease: not different among three treatment groups
[4]
  less symptom severity compared to water control: 24%
aphids
  number of adult aphids: 1.0 per leaf
  number of aphid nymphs: 21 per leaf
